For 1 cell line, relative viability results are on record in the supplement of paper PMC10307832.

What all share (assay): relative viability (nuclei count vs DMSO), 5 days (fraction); higher = more cells survive
Compound in assay [1]: C1=CC2=C(C=C(C(=C2N=C1)O)N=NC3=CC4=C(C=C3)C=C(C=C4)S(=O)(=O)O)S(=O)(=O)O + CS(=O)(=O)N1CCN(Cc2cc3nc(-c4cccc5[nH]ncc45)nc(N4CCOCC4)c3s2)CC1 [Pictilisib] (partner 1 µM)
The gist of the method:
(§1)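 The day after seeding in 1536-well plates, lung cancer cell lines were treated by pin tool with a single drug, or with a fixed anchor-drug dose together with five library-drug doses (not always all listed) in √10 steps. After 5 days, a combined fix-and-stain solution (final 0.05% Triton X-100, 1% formaldehyde, 1 ug/ml Hoechst) was added. Nuclei counted on 4× images gave relative viability as treated counts over vehicle counts, reported as the median of duplicate plates.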

Compound in the assay “AT-7519 + Foretinib”: O=C(NC1CCNCC1)c1n[nH]cc1NC(=O)c1c(Cl)cccc1Cl [AT-7519] + COc1cc2c(Oc3ccc(NC(=O)C4(C(=O)Nc5ccc(F)cc5)CC4)cc3F)ccnc2cc1OCCCN1CCOCC1 [Foretinib] (partner 0.25 µM)
The gist of the method: as §1

Compound in the assay “AT-7519 + Lapatinib”: O=C(NC1CCNCC1)c1n[nH]cc1NC(=O)c1c(Cl)cccc1Cl [AT-7519] + CS(=O)(=O)CCNCc1ccc(-c2ccc3ncnc(Nc4ccc(OCc5cccc(F)c5)c(Cl)c4)c3c2)o1 [Lapatinib] (partner 2 µM)
The gist of the method:
as §1

Compound in the assay “AT-7519 + Vorinostat”: O=C(NC1CCNCC1)c1n[nH]cc1NC(=O)c1c(Cl)cccc1Cl [AT-7519] + O=C(CCCCCCC(=O)Nc1ccccc1)NO [Vorinostat] (partner 1 µM)
The procedure, abridged:
as §1

With UMC-11, the relative viability amounted to 1.05 in assay [1] (first compound 0.08 µM); 0.762 in assay [1] (first compound 0.253 µM); 0.761 in assay [1] (first compound 0.8 µM); 0.908 in assay [1] (first compound 2.53 µM); 0.833 in assay [1] (first compound 8 µM); 1.1 in the assay with AT-7519 + Foretinib (first compound 0.01 µM). Besides, the relative viability with AT-7519 + Foretinib (first compound 0.03162 µM) turned out to be 0.934; in the assay with AT-7519 + Foretinib (first compound 0.3162 µM) it was 0.838; with AT-7519 + Foretinib (first compound 1 µM), 0.457; with AT-7519 + Lapatinib (first compound 0.01 µM), 1.18; with AT-7519 + Lapatinib (first compound 0.03162 µM), 0.988; with AT-7519 + Lapatinib (first compound 0.3162 µM), 0.519. Also, the relative viability with AT-7519 + Lapatinib (first compound 1 µM) is 0.252; with AT-7519 + Vorinostat (first compound 0.01 µM), 0.324; in the assay with AT-7519 + Vorinostat (first compound 0.03162 µM), 0.379; with AT-7519 + Vorinostat (first compound 0.3162 µM) it was 0.272; in the assay with AT-7519 + Vorinostat (first compound 1 µM), 0.205.
